In patent publication US10294202B2, “Pyrrolidinones as herbicides” (FMC Corporation, priority 2013, dated 2019):

How the values were obtained:
ducksalad = assay: Test C flooded paddy test; assay type: in vivo, Heteranthera limosa; conditions: Flood
Summary of the method: (§1)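 Visual ratings from 0, no effect, to 100, complete control, were made against untreated controls after 13–15 greenhouse days. Compounds had gone straight into paddy water 3 cm above the soil, kept at that depth, on 2-leaf-stage plants.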

sedge, umbrella = assay: Test C flooded paddy test; assay type: in vivo, Cyperus difformis; conditions: Flood
Summary of the method: as §1

galium = assay: Test A postemergence herbicide test; assay type: in vivo, Galium aparine
Summary of the method: (§2)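 Ratings compare treated with untreated plants roughly 10 days after a postemergence application made at the one- to two-leaf stage. Scoring uses 0–100, where 0 means no effect and 100 complete control.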

blackgrass = assay: Test A postemergence herbicide test; assay type: in vivo, Alopecurus myosuroides
Summary of the method: as §2

wheat = assay: Test A pre-/postemergence herbicide test; assay type: in vivo, Triticum aestivum
Summary of the method: (§3)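 Greenhouse pot test with pre- and postemergence application of surfactant-containing solvent formulations. Postemergence plants were 2–10 cm, one- to two-leaf stage. Response scored visually after ~10 days, 0 (no effect) to 100 (complete control).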

ragweed = assay: Test A pre-/postemergence herbicide test; assay type: in vivo, Ambrosia elatior; conditions: for Plant response rating, Ragweed: 0 to 100 scale
Summary of the method: as §3

corn = assay: Test A pre-/postemergence herbicide test; assay type: in vivo, Zea mays
Summary of the method: as §3

barnyardgrass [1] = assay: Test A pre-/postemergence herbicide test; assay type: in vivo, Echinochloa crus-galli
Summary of the method: as §3

kochia = assay: Test A pre-/postemergence herbicide test; assay type: in vivo, Kochia scoparia; conditions: for Plant response rating, Kochia: 0 to 100 scale
Summary of the method: as §3

giant foxtail = assay: Test A pre-/postemergence herbicide test; assay type: in vivo, Setaria faberii
Summary of the method: as §3

pigweed = assay: Test A pre-/postemergence herbicide test; assay type: in vivo, Amaranthus retroflexus
Summary of the method: as §3

ryegrass, Italian = assay: Test A pre-/postemergence herbicide test; assay type: in vivo, Lolium multiflorum; conditions: for Plant response rating, Ryegrass, Italian: 0 to 100 scale
Summary of the method: as §3

barnyardgrass [2] = assay: Test C flooded paddy test; assay type: in vivo, Echinochloa crus-galli; conditions: Flood
Summary of the method: as §1

rice = assay: Test C flooded paddy test; assay type: in vivo, Oryza sativa; conditions: Flood
Summary of the method: as §1

crabgrass, large = assay: Test A pre-/postemergence herbicide test; assay type: in vivo, Digitaria sanguinalis
Summary of the method: as §3

velvetleaf = assay: Test A pre-/postemergence herbicide test; assay type: in vivo, Abutilon theophrasti
Summary of the method: as §3

morningglory = assay: Test A pre-/postemergence herbicide test; assay type: in vivo, Ipomoea spp.
Summary of the method: as §3

[3] = 125 g ai/ha, scale of 0 to 100 where 0 is no effect and 100 is complete control, 13 to 15 days
[4] = 125 g ai/ha, 0 to 100 scale, 0 no effect, 100 complete control
[5] = Postemergence, 125 g ai/ha, 0 to 100 scale, 0 no effect, 100 complete control
[6] = 125 g ai/ha, visual rating, 0 no effect, 100 complete control, approximately 10 days, preemergence
[7] = Postemergence, 125 g ai/ha, 0 no effect, 100 complete control
[8] = Postemergence, 500 g ai/ha, 0 to 100 scale (0 no effect, 100 complete control)
[9] = 125 g ai/ha, visual rating, 0 to 100 scale, 0 no effect, 100 complete control, approximately 10 days, preemergence
[10] = preemergence, 500 g ai/ha, 0 to 100 scale (0 no effect, 100 complete control)
[11] = preemergence, 500 g ai/ha, 0 to 100 scale
[12] = Preemergence, 125 g ai/ha, visual rating on 0 to 100 scale (0 no effect, 100 complete control)

SMILES: O=C1NCC(c2cccc(C(F)(F)F)c2)C1C(=O)Nc1ncc(Cl)s1 (racemic) [Compound 113]
- Plant response rating, Ducksalad (ducksalad; [3]): 20
- Plant response rating, Ducksalad (ducksalad; 250 g ai/ha, scale 0 to 100): 30
- Plant response rating, Ducksalad (ducksalad; 500 g ai/ha, scale 0 to 100): 50
- Plant response rating, Ducksalad (ducksalad; 1000 g ai/ha, scale 0 to 100): 70
- Plant response rating, Sedge, Umbrella (sedge, umbrella; [3]): 0
- Plant response rating, Sedge, Umbrella (sedge, umbrella; 250 g ai/ha, scale 0 to 100): 0
- Plant response rating, Sedge, Umbrella (sedge, umbrella; 500 g ai/ha, scale 0 to 100): 0
- Plant response rating, Sedge, Umbrella (sedge, umbrella; 1000 g ai/ha, scale 0 to 100): 0
- Plant response rating, Galium (galium; [4]): 0
- Galium plant response rating (0 to 100 scale, 0 is no effect, 100 is complete control) (galium; 500 g ai/ha): 0
- Plant response rating, Blackgrass (blackgrass; [4]): 0
- Plant response rating, Blackgrass (blackgrass; 500 g ai/ha, 0 to 100 scale (0 no effect, 100 complete control)): 0
- Plant response rating, Wheat (wheat; [5]): 0
- Wheat plant response rating (0 to 100 scale, 0 is no effect, 100 is complete control) (wheat; Postemergence, 500 g ai/ha): 0
- Plant response rating, Ragweed (ragweed; [6]): 0
- Plant response rating, Ragweed (ragweed; [7]): 0
- Ragweed plant response rating (0 to 100 scale, 0 is no effect, 100 is complete control) (ragweed; Postemergence, 500 g ai/ha): 0
- Plant response rating, Ragweed (ragweed; preemergence, 500 g ai/ha): 0
- Plant response rating, Corn (corn; [5]): 0
- Plant response rating, Corn (corn; [8]): 0
- Plant response rating, Barnyardgrass (barnyardgrass [1]; [9]): 0
- Plant response rating, Barnyardgrass (barnyardgrass [1]; [5]): 0
- Plant response rating, Barnyardgrass (barnyardgrass [1]; [8]): 0
- Plant response rating, Barnyardgrass (barnyardgrass [1]; [10]): 0
- Plant response rating, Kochia (kochia; [6]): 0
- Plant response rating, Kochia (kochia; [7]): 0
- Kochia plant response rating (0 to 100 scale, 0 is no effect, 100 is complete control) (kochia; Postemergence, 500 g ai/ha): 0
- Plant response rating, Kochia (kochia; preemergence, 500 g ai/ha): 0
- Plant response rating, Foxtail, Giant (giant foxtail; [9]): 0
- Plant response rating, Foxtail, Giant (giant foxtail; [5]): 0
- Foxtail, Giant plant response rating (0 to 100 scale, 0 is no effect, 100 is complete control) (giant foxtail; Postemergence, 500 g ai/ha): 0
- Plant response rating, Foxtail, Giant (giant foxtail; [11]): 0
- Plant response rating, Pigweed (pigweed; [9]): 0
- Plant response rating, Pigweed (pigweed; [5]): 0
- Pigweed plant response rating (0 to 100 scale, 0 is no effect, 100 is complete control) (pigweed; Postemergence, 500 g ai/ha): 0
- Plant response rating, Pigweed (pigweed; [11]): 0
- Plant response rating, Ryegrass, Italian (ryegrass, Italian; [6]): 0
- Plant response rating, Ryegrass, Italian (ryegrass, Italian; [7]): 0
- Ryegrass, Italian plant response rating (0 to 100 scale, 0 is no effect, 100 is complete control) (ryegrass, Italian; Postemergence, 500 g ai/ha): 0
- Plant response rating, Ryegrass, Italian (ryegrass, Italian; preemergence, 500 g ai/ha): 0
- Plant response rating, Barnyardgrass (barnyardgrass [2]; [3]): 0
- Plant response rating, Barnyardgrass (barnyardgrass [2]; 250 g ai/ha, scale 0 to 100): 0
- Plant response rating, Barnyardgrass (barnyardgrass [2]; 500 g ai/ha, scale 0 to 100): 0
- Plant response rating, Barnyardgrass (barnyardgrass [2]; 1000 g ai/ha, scale 0 to 100): 0
- Plant response rating, Rice (rice; [3]): 0
- Plant response rating, Rice (rice; 250 g ai/ha, scale 0 to 100): 0
- Plant response rating, Rice (rice; 500 g ai/ha, scale 0 to 100): 0
- Plant response rating, Rice (rice; 1000 g ai/ha, scale 0 to 100): 0

SMILES: O=C1NC[C@@H](c2ccc(F)c(F)c2)[C@@H]1C(=O)Nc1ccccc1F [Compound 102]
- Plant response rating, Ducksalad (ducksalad; [3]): 0
- Plant response rating, Ducksalad (ducksalad; 250 g ai/ha, scale 0 to 100): 0
- Plant response rating, Ducksalad (ducksalad; 500 g ai/ha, scale 0 to 100): 0
- Plant response rating, Ducksalad (ducksalad; 1000 g ai/ha, scale 0 to 100): 0
- Plant response rating, Sedge, Umbrella (sedge, umbrella; [3]): 0
- Plant response rating, Sedge, Umbrella (sedge, umbrella; 250 g ai/ha, scale 0 to 100): 0
- Plant response rating, Sedge, Umbrella (sedge, umbrella; 500 g ai/ha, scale 0 to 100): 0
- Plant response rating, Sedge, Umbrella (sedge, umbrella; 1000 g ai/ha, scale 0 to 100): 0
- Plant response rating, Crabgrass, Large (crabgrass, large; [5]): 0
- Plant response rating, Crabgrass, Large (crabgrass, large; [8]): 0
- Crabgrass, Large plant response rating (crabgrass, large; [12]): 0
- Plant response rating, Crabgrass, Large (crabgrass, large; [11]): 0
- Plant response rating, Wheat (wheat; [5]): 0
- Plant response rating, Wheat (wheat; [8]): 0
- Wheat plant response rating (wheat; [12]): 0
- Plant response rating, Wheat (wheat; [11]): 0
- Plant response rating, Corn (corn; [5]): 0
- Plant response rating, Corn (corn; [8]): 0
- Corn plant response rating (corn; [12]): 0
- Plant response rating, Corn (corn; [11]): 0
- Plant response rating, Barnyardgrass (barnyardgrass [1]; [5]): 0
- Plant response rating, Barnyardgrass (barnyardgrass [1]; [8]): 0
- Barnyardgrass plant response rating (barnyardgrass [1]; [12]): 0
- Plant response rating, Barnyardgrass (barnyardgrass [1]; [10]): 0
- Plant response rating, Velvetleaf (velvetleaf; [5]): 0
- Plant response rating, Velvetleaf (velvetleaf; [8]): 0
- Velvetleaf plant response rating (velvetleaf; [12]): 0
- Plant response rating, Velvetleaf (velvetleaf; [11]): 0
- Plant response rating, Morningglory (morningglory; [5]): 0
- Plant response rating, Morningglory (morningglory; [8]): 0
- Morningglory plant response rating (morningglory; [12]): 0
- Plant response rating, Morningglory (morningglory; [11]): 0
- Plant response rating, Foxtail, Giant (giant foxtail; [5]): 0
- Plant response rating, Foxtail, Giant (giant foxtail; [8]): 0
- Foxtail, Giant plant response rating (giant foxtail; [12]): 0
- Plant response rating, Foxtail, Giant (giant foxtail; [11]): 0
- Plant response rating, Pigweed (pigweed; [5]): 0
- Plant response rating, Pigweed (pigweed; [8]): 0
- Pigweed plant response rating (pigweed; [12]): 0
- Plant response rating, Pigweed (pigweed; [11]): 0
- Plant response rating, Barnyardgrass (barnyardgrass [2]; [3]): 0
- Plant response rating, Barnyardgrass (barnyardgrass [2]; 250 g ai/ha, scale 0 to 100): 0
- Plant response rating, Barnyardgrass (barnyardgrass [2]; 500 g ai/ha, scale 0 to 100): 0
- Plant response rating, Barnyardgrass (barnyardgrass [2]; 1000 g ai/ha, scale 0 to 100): 0
- Plant response rating, Rice (rice; [3]): 0
- Plant response rating, Rice (rice; 250 g ai/ha, scale 0 to 100): 0
- Plant response rating, Rice (rice; 500 g ai/ha, scale 0 to 100): 0
- Plant response rating, Rice (rice; 1000 g ai/ha, scale 0 to 100): 0
